Patent US9434743B2, “Indazole derivatives” (TAKEDA PHARMACEUTICAL COMPANY LIMITED, priority 2012, dated 2016)

Experiments:
[1] = target: T1, human MetAP2 enzyme (Homo sapiens, UniProt P50579); assay: MetAP2 enzyme assay, enzyme complexed with cobalt ions; conditions: MetAP2 Co pIC50, MetAP2 enzyme complexed with cobalt ions; Met-AMC substrate at Km
[2] = target: T1, human MetAP2 enzyme; assay: MetAP2 enzyme assay, enzyme complexed with manganese ions; conditions: MetAP2 Mn pIC50, MetAP2 enzyme complexed with manganese ions; Met-AMC substrate at Km

T1 sequence (P50579 whole entry): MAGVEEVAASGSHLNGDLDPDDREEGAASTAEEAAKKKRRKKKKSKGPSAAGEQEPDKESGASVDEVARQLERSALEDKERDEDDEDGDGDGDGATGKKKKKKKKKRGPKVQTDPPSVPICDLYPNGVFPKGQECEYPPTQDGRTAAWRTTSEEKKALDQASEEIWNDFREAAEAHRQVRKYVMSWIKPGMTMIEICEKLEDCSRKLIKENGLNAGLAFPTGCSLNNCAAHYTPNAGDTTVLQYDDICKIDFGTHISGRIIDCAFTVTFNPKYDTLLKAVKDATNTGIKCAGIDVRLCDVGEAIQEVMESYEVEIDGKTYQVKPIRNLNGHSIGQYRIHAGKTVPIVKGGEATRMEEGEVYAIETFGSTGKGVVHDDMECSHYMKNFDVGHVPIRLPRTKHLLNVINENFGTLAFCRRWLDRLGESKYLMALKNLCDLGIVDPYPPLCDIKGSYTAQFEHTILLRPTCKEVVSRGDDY

IC50 [1]	IC50 [2]	Compound
15.8 nM	3.98 nM	CNc1nc(C)c(-c2cc(C(F)(F)F)cc3[nH]ncc23)cc1C(=O)N1CC(O)C1 [Example 397, (3-hydroxyazetidin-1-yl)(6-methyl-2-(methylamino)-5-(6-(trifluoromethyl)-1H-indazol-4-yl)pyridin-3-yl)methanone]
63.1 nM	6.31 nM	COc1ncc(-c2cc(C(F)(F)F)cc3[nH]ncc23)cc1C(N)=O [Example 232, 2-methoxy-5-(6-(trifluoromethyl)-1H-indazol-4-yl)nicotinamide]
50.1 nM	5.01 nM	NS(=O)(=O)c1cc(F)c(-c2cc(C(F)(F)F)cc3[nH]ncc23)cc1F [Example 376, 2,5-difluoro-4-(6-(trifluoromethyl)-1H-indazol-4-yl)benzenesulfonamide]
100 nM	6.31 nM	FC(F)(F)c1cc(-c2cn[nH]c2)c2cn[nH]c2c1 [Example 23, 4-(1H-pyrazol-4-yl)-6-(trifluoromethyl)-1H-indazole]
1000 nM	39.8 nM	O=C(O)Cn1cc(-c2cc(C(F)(F)F)cc3[nH]ncc23)cn1 [Example 261, 2-(4-(6-(trifluoromethyl)-1H-indazol-4-yl)-1H-pyrazol-1-yl)acetic acid]
50.1 nM	15.8 nM	FC(F)(F)c1cc(-c2cncc3ccccc23)c2cn[nH]c2c1 [Example 111, 4-(6-(trifluoromethyl)-1H-indazol-4-yl)isoquinoline]
63.1 nM	7.94 nM	Cc1cc2cncn2cc1-c1cc(C(F)(F)F)cc2[nH]ncc12 [Example 388, 4-(7-methylimidazo[1,5-a]pyridin-6-yl)-6-(trifluoromethyl)-1H-indazole]
2000 nM	251 nM	CC(=O)Nc1cccnc1-c1cc(C(F)(F)F)cc2[nH]ncc12 [Example 218, N-(2-(6-(trifluoromethyl)-1H-indazol-4-yl)pyridin-3-yl)acetamide]
100 nM	5.01 nM	NS(=O)(=O)c1ccc(-c2cc(C(F)(F)F)cc3[nH]ncc23)cn1 [Example 345, 5-(6-(trifluoromethyl)-1H-indazol-4-yl)pyridine-2-sulfonamide]
79.4 nM	7.94 nM	COc1ncc(N)cc1-c1cc(C(F)(F)F)cc2[nH]ncc12 [Example 187, 6-methoxy-5-(6-(trifluoromethyl)-1H-indazol-4-yl)pyridin-3-amine]
20 nM	7.94 nM	FC(F)(F)c1cc(-c2ccc3[nH]cnc3c2)c2cn[nH]c2c1 [Example 17, 4-(1H-benzo[d]imidazol-5-yl)-6-(trifluoromethyl)-1H-indazole]
631 nM	10 nM	C[C@@H](O)CNC(=O)c1c[nH]c(=O)c(-c2cc(C(F)(F)F)cc3[nH]ncc23)c1 [Example 336, (R)—N-(2-hydroxypropyl)-6-oxo-5-(6-(trifluoromethyl)-1H-indazol-4-yl)-1,6-dihydropyridine-3-carboxamide]
79.4 nM	3.98 nM	CCNC(=O)c1cccc(-c2cc(C(F)(F)F)cc3[nH]ncc23)c1 [Example 88, N-ethyl-3-(6-(trifluoromethyl)-1H-indazol-4-yl)benzamide]
39.8 nM	10 nM	Cc1nc(C)c(-c2cc(C(F)(F)F)cc3[nH]ncc23)s1 [Example 40, 2,4-dimethyl-5-(6-(trifluoromethyl)-1H-indazol-4-yl)thiazole]
158 nM	31.6 nM	Cc1cc(S(=O)(=O)N(C)C)ccc1-c1cc(C(F)(F)F)cc2[nH]ncc12 [Example 125, N,N,3-trimethyl-4-(6-(trifluoromethyl)-1H-indazol-4-yl)benzenesulfonamide]
63.1 nM	6.31 nM	CN(C)C(=O)c1cccc(-c2cc(C(F)(F)F)cc3[nH]ncc23)c1 [Example 121, N,N-dimethyl-3-(6-(trifluoromethyl)-1H-indazol-4-yl)benzamide]
100 nM	20 nM	Cc1nn(CC#N)c(C)c1-c1cc(C(F)(F)F)cc2[nH]ncc12 [Example 170, 2-(3,5-dimethyl-4-(6-(trifluoromethyl)-1H-indazol-4-yl)-1H-pyrazol-1-yl)acetonitrile]
63.1 nM	10 nM	CN1CCN(C(=O)c2cnc(N)c(-c3cc(C(F)(F)F)cc4[nH]ncc34)c2)CC1 [Example 221, (6-amino-5-(6-(trifluoromethyl)-1H-indazol-4-yl)pyridin-3-yl)(4-methylpiperazin-1-yl)methanone]
158 nM	10 nM	Nc1ncc(Cl)cc1-c1cc(C(F)(F)F)cc2[nH]ncc12 [Example 137, 5-chloro-3-(6-(trifluoromethyl)-1H-indazol-4-yl)pyridin-2-amine]
398 nM	10 nM	Nc1cc(Cl)cnc1-c1cc(C(F)(F)F)cc2[nH]ncc12 [Example 216, 5-chloro-2-(6-(trifluoromethyl)-1H-indazol-4-yl)pyridin-3-amine]

IC50 [1]	IC50 [2]	Compound
31.6 nM	12.6 nM	Cn1ncc2ccc(-c3cc(C(F)(F)F)cc4[nH]ncc34)cc21 [Example 24, 1′-methyl-6-(trifluoromethyl)-1H,1′H-4,6′-biindazole]
158 nM	7.94 nM	Nc1ncc(-c2cc(C(F)(F)F)cc3[nH]ncc23)cc1C(=O)NCCO [Example 230, 2-amino-N-(2-hydroxyethyl)-5-(6-(trifluoromethyl)-1H-indazol-4-yl)nicotinamide]
39.8 nM	6.31 nM	Cc1nc(C(N)=O)ccc1-c1cc(C(F)(F)F)cc2[nH]ncc12 [Example 379, 6-methyl-5-(6-(trifluoromethyl)-1H-indazol-4-yl)picolinamide]
251 nM	20 nM	Cc1nn(-c2nnn[nH]2)c(C)c1-c1cc(C(F)(F)F)cc2[nH]ncc12 [Example 169, 4-(3,5-dimethyl-1-(1H-tetrazol-5-yl)-1H-pyrazol-4-yl)-6-(trifluoromethyl)-1H-indazole]
39.8 nM	12.6 nM	CN1CCOc2cc(-c3cc(C(F)(F)F)cc4[nH]ncc34)cnc21 [Example 122, 4-methyl-7-(6-(trifluoromethyl)-1H-indazol-4-yl)-3,4-dihydro-2H-pyrido[3,2-b][1,4]oxazine]
7.94 nM	1.58 nM	O=C(NCCO)c1ccc(-c2cc(C(F)(F)F)cc3[nH]ncc23)cc1 [Example 130, N-(2-hydroxyethyl)-4-(6-(trifluoromethyl)-1H-indazol-4-yl)benzamide]
501 nM	158 nM	CCN1C(=O)C(=O)c2cc(C)cc(-c3cc(C(F)(F)F)cc4[nH]ncc34)c21 [Example 199, 1-ethyl-5-methyl-7-(6-(trifluoromethyl)-1H-indazol-4-yl)indoline-2,3-dione]
25.1 nM	6.31 nM	FC(F)(F)c1cc(-c2cnn3ccccc23)c2cn[nH]c2c1 [Example 41, 4-(pyrazolo[1,5-a]pyridin-3-yl)-6-(trifluoromethyl)-1H-indazole]
63.1 nM	12.6 nM	COc1ccc(C(=O)N2CCN(C)CC2)cc1-c1cc(C(F)(F)F)cc2[nH]ncc12 [Example 266, (4-methoxy-3-(6-(trifluoromethyl)-1H-indazol-4-yl)phenyl)(4-methylpiperazin-1-yl)methanone]
79.4 nM	12.6 nM	Cc1nn(C(F)F)c(C)c1-c1cc(C(F)(F)F)cc2[nH]ncc12 [Example 348, 4-(1-(difluoromethyl)-3,5-dimethyl-1H-pyrazol-4-yl)-6-(trifluoromethyl)-1H-indazole]
158 nM	12.6 nM	O=C1Cc2cccc(-c3cc(C(F)(F)F)cc4[nH]ncc34)c2N1 [Example 136, 7-(6-(trifluoromethyl)-1H-indazol-4-yl)indolin-2-one]
398 nM	10 nM	O=C(c1c[nH]c(=O)c(-c2cc(C(F)(F)F)cc3[nH]ncc23)c1)N1CCOCC1 [Example 298, 5-(morpholine-4-carbonyl)-3-(6-(trifluoromethyl)-1H-indazol-4-yl)pyridin-2(1H)-one]
1580 nM	158 nM	N#Cc1cnc2c(-c3cc(C(F)(F)F)cc4[nH]ncc34)cnn2c1N [Example 159, 7-amino-3-(6-(trifluoromethyl)-1H-indazol-4-yl)pyrazolo[1,5-a]pyrimidine-6-carbonitrile]
79.4 nM	5.01 nM	O=C(c1cc(-c2cc(C(F)(F)F)cc3[nH]ncc23)ccn1)N1CC(O)C1 [Example 385, (3-hydroxyazetidin-1-yl)(4-(6-(trifluoromethyl)-1H-indazol-4-yl)pyridin-2-yl)methanone]
158 nM	7.94 nM	N#Cc1cc(F)ccc1-c1cc(C(F)(F)F)cc2[nH]ncc12 [Example 75, 5-fluoro-2-(6-(trifluoromethyl)-1H-indazol-4-yl)benzonitrile]
100 nM	10 nM	N#Cc1cccc(-c2cc(C(F)(F)F)cc3[nH]ncc23)c1 [Example 33, 3-(6-(trifluoromethyl)-1H-indazol-4-yl)benzonitrile]
631 nM	20 nM	Cn1cc(C(=O)N2CCOCC2)cc(-c2cc(C(F)(F)F)cc3[nH]ncc23)c1=O [Example 314, 1-methyl-5-(morpholine-4-carbonyl)-3-(6-(trifluoromethyl)-1H-indazol-4-yl)pyridin-2(1H)-one]
2510 nM	100 nM	Cn1c(-c2cc(C(F)(F)F)cc3[nH]ncc23)cc2ccccc21 [Example 51, 4-(1-methyl-1H-indol-2-yl)-6-(trifluoromethyl)-1H-indazole]
12.6 nM	6.31 nM	Cc1nc2[nH]c(O)nc2cc1-c1cc(C(F)(F)F)cc2[nH]ncc12 [Example 382, 5-methyl-6-(6-(trifluoromethyl)-1H-indazol-4-yl)-3H-imidazo[4,5-b]pyridin-2-ol]
1580 nM	79.4 nM	CS(=O)(=O)c1ccccc1-c1cc(C(F)(F)F)cc2[nH]ncc12 [Example 365, 4-(2-(methylsulfonyl)phenyl)-6-(trifluoromethyl)-1H-indazole]
